# According to ChEMBL document CHEMBL1154822, “Synthesis and antiproliferative activity of 7-azaindirubin-3'-oxime, a 7-aza isostere of the natural indirubin pharmacophore” (J Nat Prod, 2009):
# Assays:
# [1] = system: SF-539; test: Cytotoxicity against human SF539 cells assessed as cell growth at 0.1 uM after 1 to 11 days by MTT assay; format: functional; settings: read-out: Activity
# [2] = system: NCI/ADR-RES; test: Cytotoxicity against human NCI/ADR-RES cells assessed as cell growth at 0.1 uM after 1 to 11 days by MTT assay; format: functional; settings: read-out: Activity
# [3] = system: IGROV-1; test: Cytotoxicity against human IGROV1 cells assessed as cell growth at 0.1 uM after 1 to 11 days by MTT assay; format: functional; settings: read-out: Activity
# [4] = system: SF-268; test: Cytotoxicity against human SF268 cells assessed as cell growth at 0.1 uM after 1 to 11 days by MTT assay; format: functional; settings: read-out: Activity
# [5] = target: Glycogen synthase kinase-3 beta (Homo sapiens) (UniProt P49841); test: Inhibition of human GSK3-beta at 3 uM after 40 mins by scintillation counting
# [6] = system: HL-60(TB); test: Cytotoxicity against human HL-60(TB) cells assessed as cell growth at 1 mM after 1 to 11 days by MTT assay; format: functional; settings: read-out: Activity
# [7] = system: MCF7; test: Cytotoxicity against human MCF7 cells assessed as cell growth at 100 uM after 1 to 11 days by MTT assay; format: functional; settings: read-out: Activity
# [8] = system: CCRF-CEM; test: Cytotoxicity against human CCRF-CEM cells after 1 to 11 days by MTT assay; format: functional
# [9] = system: KM12; test: Cytotoxicity against human KM12 cells assessed as cell growth at 1 uM after 1 to 11 days by MTT assay; format: functional; settings: read-out: Activity
# [10] = Cytotoxicity against human Hs 578T cells assessed as cell growth at 10 uM after 1 to 11 days by MTT assay; format: functional; settings: read-out: Activity
# [11] = system: OVCAR-8; test: Cytotoxicity against human OVCAR8 cells assessed as cell growth at 10 uM after 1 to 11 days by MTT assay; format: functional; settings: read-out: Activity
# [12] = system: SK-OV-3; test: Cytotoxicity against human SKOV3 cells assessed as cell growth at 100 uM after 1 to 11 days by MTT assay; format: functional; settings: read-out: Activity
# [13] = system: NCI-H460; test: Cytotoxicity against human NCI-H460 cells after 1 to 11 days by MTT assay; format: functional
# [14] = system: RXF 393; test: Cytotoxicity against human […] cells assessed as cell growth at 100 uM after 1 to 11 days by MTT assay; format: functional; settings: read-out: Activity
# [15] = system: MDA-MB-231; test: Cytotoxicity against human MDA-MB-231 cells assessed as cell growth at 0.1 uM after 1 to 11 days by MTT assay; format: functional; settings: read-out: Activity
# [16] = system: IGROV-1; test: Cytotoxicity against human IGROV1 cells assessed as cell growth at 1 mM after 1 to 11 days by MTT assay; format: functional; settings: read-out: Activity
# [17] = system: SK-MEL-28; test: Cytotoxicity against human SK-MEL-28 cells assessed as cell growth at 1 mM after 1 to 11 days by MTT assay; format: functional; settings: read-out: Activity
# [18] = system: SK-OV-3; test: Cytotoxicity against human SKOV3 cells assessed as cell growth at 0.1 uM after 1 to 11 days by MTT assay; format: functional; settings: read-out: Activity
# [19] = system: OVCAR-8; test: Cytotoxicity against human OVCAR8 cells assessed as cell growth at 1 mM after 1 to 11 days by MTT assay; format: functional; settings: read-out: Activity
# [20] = system: DU-145; test: Cytotoxicity against human DU145 cells assessed as cell growth at 0.1 uM after 1 to 11 days by MTT assay; format: functional; settings: read-out: Activity
# [21] = system: DU-145; test: Cytotoxicity against human DU145 cells after 1 to 11 days by MTT assay; format: functional
# [22] = system: UO-31; test: Cytotoxicity against human UO31 cells assessed as cell growth at 0.1 uM after 1 to 11 days by MTT assay; format: functional; settings: read-out: Activity
# [23] = system: KM12; test: Cytotoxicity against human KM12 cells after 1 to 11 days by MTT assay; format: functional
# [24] = system: OVCAR-3; test: Cytotoxicity against human OVCAR-3 cells assessed as cell growth at 1 mM after 1 to 11 days by MTT assay; format: functional; settings: read-out: Activity
# [25] = system: Malme-3M; test: Cytotoxicity against human MALME-3M cells after 1 to 11 days by MTT assay; format: functional
# [26] = system: UACC-257; test: Cytotoxicity against human UACC257 cells assessed as cell growth at 0.1 uM after 1 to 11 days by MTT assay; format: functional; settings: read-out: Activity
# [27] = system: UO-31; test: Cytotoxicity against human UO31 cells after 1 to 11 days by MTT assay; format: functional
# [28] = system: HOP-62; test: Cytotoxicity against human HOP62 cells assessed as cell growth at 0.1 uM after 1 to 11 days by MTT assay; format: functional; settings: read-out: Activity
# [29] = system: UACC-257; test: Cytotoxicity against human UACC257 cells assessed as cell growth at 100 uM after 1 to 11 days by MTT assay; format: functional; settings: read-out: Activity
# [30] = system: NCI-H322M; test: Cytotoxicity against human NCI-H322M cells assessed as cell growth at 10 uM after 1 to 11 days by MTT assay; format: functional; settings: read-out: Activity
# [31] = system: HT-29; test: Cytotoxicity against human HT-29 cells assessed as cell growth at 0.1 uM after 1 to 11 days by MTT assay; format: functional; settings: read-out: Activity
# [32] = system: T47D; test: Cytotoxicity against human T47D cells assessed as cell growth at 10 uM after 1 to 11 days by MTT assay; format: functional; settings: read-out: Activity
# [33] = system: U-251; test: Cytotoxicity against human U251 cells assessed as cell growth at 100 uM after 1 to 11 days by MTT assay; format: functional; settings: read-out: Activity
# [34] = system: A549; test: Cytotoxicity against human A549 cells assessed as cell growth at 1 mM after 1 to 11 days by MTT assay; format: functional; settings: read-out: Activity
# [35] = system: UO-31; test: Cytotoxicity against human UO31 cells assessed as cell growth at 10 uM after 1 to 11 days by MTT assay; format: functional; settings: read-out: Activity
# [36] = system: SNB-75; test: Cytotoxicity against human SNB75 cells assessed as cell growth at 0.1 uM after 1 to 11 days by MTT assay; format: functional; settings: read-out: Activity
# [37] = system: SF-268; test: Cytotoxicity against human SF268 cells after 1 to 11 days by MTT assay; format: functional
# [38] = system: IGROV-1; test: Cytotoxicity against human IGROV1 cells after 1 to 11 days by MTT assay; format: functional
# [39] = system: M14; test: Cytotoxicity against human M14 cells assessed as cell growth at 1 uM after 1 to 11 days by MTT assay; format: functional; settings: read-out: Activity
# [40] = system: NCI-H23; test: Cytotoxicity against human NCI-H23 cells assessed as cell growth at 1 uM after 1 to 11 days by MTT assay; format: functional; settings: read-out: Activity
# [41] = system: TK-10; test: Cytotoxicity against human TK10 cells assessed as cell growth at 10 uM after 1 to 11 days by MTT assay; format: functional; settings: read-out: Activity
# [42] = system: HT-29; test: Cytotoxicity against human HT-29 cells assessed as cell growth at 1 uM after 1 to 11 days by MTT assay; format: functional; settings: read-out: Activity
# [43] = system: RXF 393; test: Cytotoxicity against human […] cells assessed as cell growth at 1 mM after 1 to 11 days by MTT assay; format: functional; settings: read-out: Activity
# [44] = read-out: LC50 (the source's name)
# Sequence of Glycogen synthase kinase-3 beta (Homo sapiens) (P49841 whole entry, looked up): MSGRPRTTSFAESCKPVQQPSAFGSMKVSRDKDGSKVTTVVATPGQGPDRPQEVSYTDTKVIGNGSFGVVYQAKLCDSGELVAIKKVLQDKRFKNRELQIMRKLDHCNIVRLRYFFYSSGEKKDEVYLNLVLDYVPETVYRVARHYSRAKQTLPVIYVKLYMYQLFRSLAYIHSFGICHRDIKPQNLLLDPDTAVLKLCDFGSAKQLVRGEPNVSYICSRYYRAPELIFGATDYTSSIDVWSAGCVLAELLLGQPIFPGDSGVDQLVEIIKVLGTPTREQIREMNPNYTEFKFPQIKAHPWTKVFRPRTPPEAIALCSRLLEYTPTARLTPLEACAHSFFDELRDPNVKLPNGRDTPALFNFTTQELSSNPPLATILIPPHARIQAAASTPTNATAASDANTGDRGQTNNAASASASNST
structure (smiles),measurement,setting,value
O=C1Nc2ncccc2/C1=C1/Nc2ccccc2/C1=N\O,growth at 0.1 µM,[1],89%
same,growth at 0.1 µM,[2],99%
same,growth at 0.1 µM,[3],102%
same,growth at 0.1 µM,[4],100%
same,inhibition,[5],81%
same,growth at 1000 µM,[6],7%
same,growth at 100 µM,[7],52%
same,GI50,[8],5.07 µM
same,TGI,[8],> 100 µM
same,CC50,[8]; [44],> 100 µM
same,growth at 1 µM,[9],91%
same,growth at 10 µM,[10],78%
same,growth at 10 µM,[11],84%
same,growth at 100 µM,[12],-6%
same,GI50,[13],7.02 µM
same,TGI,[13],> 100 µM
same,CC50,[13]; [44],> 100 µM
same,growth at 100 µM,[14],-9%
same,growth at 0.1 µM,[15],99%
same,growth at 1000 µM,[16],12%
same,growth at 1000 µM,[17],47%
same,growth at 0.1 µM,[18],100%
same,growth at 1000 µM,[19],52%
same,growth at 0.1 µM,[20],102%
same,GI50,[21],5.69 µM
same,TGI,[21],> 100 µM
same,CC50,[21]; [44],> 100 µM
same,growth at 0.1 µM,[22],85%
same,GI50,[23],0.77 µM
same,TGI,[23],> 100 µM
same,CC50,[23]; [44],> 100 µM
same,growth at 1000 µM,[24],51%
same,GI50,[25],3.36 µM
same,TGI,[25],172 µM
same,CC50,[25]; [44],> 100 µM
same,growth at 0.1 µM,[26],98%
same,GI50,[27],1.58 µM
same,TGI,[27],> 100 µM
same,CC50,[27]; [44],> 100 µM
same,growth at 0.1 µM,[28],102%
same,growth at 100 µM,[29],79%
same,growth at 10 µM,[30],56%
same,growth at 0.1 µM,[31],99%
same,growth at 10 µM,[32],65%
same,growth at 100 µM,[33],55%
same,growth at 1000 µM,[34],13%
same,growth at 10 µM,[35],62%
same,growth at 0.1 µM,[36],84%
same,GI50,[37],> 100 µM
same,TGI,[37],> 100 µM
same,CC50,[37]; [44],> 100 µM
same,GI50,[38],1.64 µM
same,TGI,[38],> 100 µM
same,CC50,[38]; [44],> 100 µM
same,growth at 1 µM,[39],95%
same,growth at 1 µM,[40],90%
same,growth at 10 µM,[41],91%
same,growth at 1 µM,[42],98%
same,growth at 1000 µM,[43],7%
